Results from patent US6967096B2, “Thermostable peptidase” (California Institute of Technology, priority 1998, dated 2005).
Entries after “also recorded” stand apart in the source; their conditions may differ. Read-outs that look alike come from different tables or passages of the source. Peptide text beside a SMILES is read from it. * marks the point of attachment. Cbz = O=C(OCc1ccccc1)*; Bz = O=C(c1ccccc1)*

Experiments:
PfuCP [1] = molecular target: T1, PfuCP (Pyrococcus furiosus, UniProt Q8U3L0); assay type: biochemical
T1 construct: Pure PfuCP fractions (1391 U.mg^1; 11 mg), as determined by SDS-PAGE, were pooled and stored at −80° C; endogenous in cells; host or cells: Pyrococcus furiosus cell paste; enzyme purified in house by column chromatography
T1 sequence (Q8U3L0 1-499): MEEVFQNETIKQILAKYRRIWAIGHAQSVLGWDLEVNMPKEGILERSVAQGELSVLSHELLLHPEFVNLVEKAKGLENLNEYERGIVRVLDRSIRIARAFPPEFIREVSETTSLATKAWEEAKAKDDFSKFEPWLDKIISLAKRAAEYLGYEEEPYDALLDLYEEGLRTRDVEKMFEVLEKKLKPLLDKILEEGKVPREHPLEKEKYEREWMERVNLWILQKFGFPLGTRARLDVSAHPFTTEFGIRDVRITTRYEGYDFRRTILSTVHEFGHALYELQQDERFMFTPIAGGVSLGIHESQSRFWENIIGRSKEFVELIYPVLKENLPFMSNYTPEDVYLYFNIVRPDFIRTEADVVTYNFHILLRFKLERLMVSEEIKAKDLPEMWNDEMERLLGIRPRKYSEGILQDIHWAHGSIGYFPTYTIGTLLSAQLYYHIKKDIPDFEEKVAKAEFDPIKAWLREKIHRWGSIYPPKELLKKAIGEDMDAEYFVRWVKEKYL
Description: (§1) Assay of Enzyme Activity: Unless stated otherwise, enzymatic activity was assayed using 4 μl of enzyme sample in a total volume of 100 μl of 0.1 M KMES buffer (pH 6.5), starting with 2 mM ZAR in the presence of 0.4 mM CoCl2. Polypropylene microcentrifuge tubes were used. The enzyme and substrate were mixed quickly at room temperature and then brought to 80° C.; the equilibration time for the reaction mixture to reach 80° C. was considered negligible relative to the time scale of the assay. The reaction mixture was incubated at 80° C. in a water bath (Neslab EX-200 DD) for 10 minutes followed by quenching on ice. Subsequently, 750 μl of cadmium-ninhydrin reagent (21) was added and the samples were incubated for an additional 5 min at 80° C. for color development followed by quenching on ice. The absorbance was read at 500 nm (HP 8452A diode array spectrophotometer) with an unheated assay mixture containing Cd-ninhydrin reagent serving as the blank. Absorbances were compared with an arginine standard curve in order to calculate specific activities. Stock solutions of ZAR and CoCl2 were prepared in 0.1 M KMES buffer (pH 6.5), and when necessary, dilution of enzyme samples was done in 50 mM Tris-Cl buffer (pH 8.0). All pH adjustments were performed at room temperature. The free amine of the liberated arginine reacts with ninhydrin to yield the chromophore, Ruheman's purple (absorbance at 500 nm).

[2] = tested on: carboxypeptidase activity in crude extract; assay: Effect of DTT and EDTA on carboxypeptidase activity in crude extract; assay type: biochemical, Pyrococcus furiosus; conditions: preliminary studies
PfuCP [3] = molecular target: T1, PfuCP; assay: Hydrolysis of synthetic substrates by PfuCP; assay type: biochemical; conditions: for hydrolysis by PfuCP at longer digestion time: digestion time 30 minutes, not detected under standard conditions; for hydrolysis by PfuCP: initial studies and control experiment
Description: as §1
One unit of activity is defined as the amount of enzyme required to generate one μmole of arginine from ZAR in one minute at 80° C. Activity assays for other ZAX amino acid substrates (X=A, D, E, F, G, H, I, K, L, M, N, P, R, S, V, W, Y) were performed under otherwise identical assay conditions; appropriate amino acids were used to prepare standard curves. Spontaneous hydrolysis of the synthetic substrates was not observed at these temperatures. Protein concentrations were quantified by the Bradford assay using bovine serum albumin as the standard.

PfuCP [4] = molecular target: T1, PfuCP; assay: Re-activation by metal ions: divalent metal ion dependence of PfuCP activity; assay type: biochemical; conditions: at 80° C.; linear reciprocal plot; read-out: binding constant (Kd) for Co^2+
Description: as §1, with “All pH adjustments were performed at room temperature.” left out, “nm). […]” for “nm).”

Compound: O[C@H](CS)[C@H](O)CS (racemic) [DTT, dithiothreitol]
- reversibility of inhibition (PfuCP [1]): fully reversible
- effect on PfuCP activity (PfuCP [1]; 2 mM): not observed
- effect on carboxypeptidase activity in crude extract [2]: completely abolished

Compound: O=S(=O)(F)Cc1ccccc1 [PMSF, Phenymethylsulfonyl fluoride]
- effect on PfuCP activity (PfuCP [1]; 1 mM): no effect
- effect on the enzymatic activity of the polypeptide (PfuCP [1]; concentration not given): no effect

Compound: C[C@H](NC(=O)OCc1ccccc1)C(=O)N[C@@H](CC(N)=O)C(=O)O [ZAN] (Cbz-Ala-Asn-OH)
- hydrolysis by PfuCP at longer digestion time (PfuCP [3]): hydrolyzed; also recorded: observed

Compound: CC(NC(=O)OCc1ccccc1)C(=O)NC(CO)C(=O)O (stereo not drawn) [ZAS]
- hydrolysis by PfuCP at longer digestion time (PfuCP [3]): hydrolyzed; also recorded: observed

Compound: O=C(O)CNC(=O)c1ccccc1 [hippuric acid, Bz-Gly]
- hydrolysis by PfuCP (PfuCP [3]): activity

Compound: NC(N)=NCCC[C@H](NC(=O)CNC(=O)c1ccccc1)C(=O)O [hippuryl-arginine, N-Benzoyl-Gly-Arg] (Bz-Gly-Arg-OH)
- hydrolysis by PfuCP (PfuCP [3]): active

Compound: O=C(O)CN(CCN(CC(=O)O)CC(=O)O)CC(=O)O [EDTA, ethylenediaminetetraacetic acid]
- effect on PfuCP activity (PfuCP [1]): not observed
- reversibility of inhibition (PfuCP [1]): fully reversible
- effect on carboxypeptidase activity in crude extract [2]: completely abolished

Compound: [Co+2] [Co^2+]
- Kd (PfuCP [4]): 13 ± 3 µM

Compound: C[C@H](NC(=O)OCc1ccccc1)C(=O)O [ZA, N-Cbz-Ala]
- hydrolysis by PfuCP (PfuCP [3]): no hydrolysis

Compound: CC(NC(=O)OCc1ccccc1)C(=O)NC(Cc1cnc[nH]1)C(=O)O (stereo not drawn) [ZAH]
- hydrolysis by PfuCP at longer digestion time (PfuCP [3]): hydrolyzed; also recorded: observed
